Laboratory results from patent publication US8420638B2, “Triheterocyclic compounds and compositions thereof” (Gemin X Pharmaceuticals Canada Inc., priority 2003, dated 2013).
Counter-ions that a name gives are not always drawn.

Legend:
[1] = Shelf stability (precipitation) of the formulated compound; assay type: physicochemical; conditions: 0.6 mg/mL in 9.6% polyethylene glycol 300, 0.4% polysorbate 20 and 5% dextrose
Experimental: Compound 1 Tartrate salt solubility is equal to 0.1 mg/mL. […] This increase in solubility has a positive impact on the shelf stability of formulated Compound 1.

[2] = system: human prostatic adenocarcinoma cancer PC3 cells; assay: Growth of PC3 prostatic tumors in SCID mice; assay type: in vivo; conditions: 5 consecutive intravenous injections; 4.84 μMoles/Kg (Compound 1 Mesylate Salt), 4.84 or 14.51 μMoles/Kg (Compound 66); FIG. 6
Experimental: The human prostatic adenocarcinoma cancer PC3 cells were purchased from the American Type Culture Collection (ATCC). These cells were confirmed to be free of mycoplasma infection. Cells were maintained in the Roswell Park Memorial Institute (RPMI), supplemented with 10% inactivated fetal bovine serum and 1% penicillin-streptomycin-L-Glutamine, under 5% carbon dioxide (CO2) at 37° C. For prostatic-tumor induction, cells were grown lower than 70% confluence in complete medium and then collected with trypsin (Bio Whittaker, Rockland, Me., USA). Cells were then centrifuged and washed 2 times in phosphate buffer solution (PBS) and resuspended in PBS at 1.5×10^6 cells/0.1 mL. PC3 cells were then transplanted subcutaneously into the flank of SCID mice (Charles River Laboratories, Wilmington, Mass., USA), as a suspension of tumor cells (1.5×10^6 cells in 100 μL PBS), under a laminar airflow hood. Eleven (11) days later, the size of each tumor was measured. […] Relative tumor size and volume was calculated as follows: length (cm)×[width (cm)]^2/2. […]

[3] = system: cancer cell lines H1299 and C33A; normal cell lines HMEC and MRC-5; assay: ATP levels in cancer versus normal cell lines (FIG. 1); assay type: cell-based; conditions: 72 hours after treatment with 0.5 μM
Experimental: One day after plating, the cells were treated with various concentrations of Compound 1 Tartrate. Stock solutions of the Compound 1 Tartrate were prepared in dimethyl sulfoxide (Sigma-Aldrich Inc., St. Louis, Mo., USA), diluted in the recommended media and then added to the cells. The total dimethyl sulfoxide on the cells was 1%. […] The results were plotted relative to untreated control cells, which were set at a value of 100.

[4] = system: C33A human cervical cancer cells; assay: Growth of C33A cervical tumors in SCID mice; assay type: in vivo, CB17 SCID/SCID mice
Experimental: (§1) There were three treatment groups of ten mice each: (a) a negative control group, (b) a positive control group and (c) a group treated with Compound 1 Tartrate.
(§2) Treatments started on day fourteen after C33A cells transplantation. Compound 1 Tartrate was administered IV once daily for five consecutive days at a dose of 4.5 mg/kg. Compound 1 Tartrate was prepared fresh daily in a vehicle solution of 5% Dextrose (Abbot Laboratories, QC, Canada) and 2% polysorbate 20 (Sigma, St. Louis, Mo., USA). The negative control group was treated with vehicle alone. The injection volume for both Compound 1 Tartrate group and the negative control group was 150 μl.
(§3) Observation continued for 40 days after initial tumor implantation.

[5] = Body weight and deaths of tumor-bearing SCID mice under treatment; assay type: in vivo, CB17 SCID/SCID mice; conditions: for change in body weight: 4.5 mg/kg IV once daily for five days, FIG. 2
Experimental: as §1, §2, §3

[6] = Solubility (0.2 μM filtration, LC/MS); assay type: physicochemical
Experimental: To determine whether a compound is soluble in a solution, the solution was filtered on 0.2 μM polytetrafluoroethylene filters (Whatman Inc. Clifton, N.J., USA) and the compound concentration in the filtrate was measured by LC/MS and compared to the expected concentration.
The column used was XTerra MS C18: 50×2.1 mm, 3.5 mm column at 20° C. Samples were injected and separated under the following conditions: The mobile phase “A” consisted of 5 mM ammonium formate, 0.1% formic acid in water and mobile phase “B” consisted of 5 mM ammonium formate, 0.1% formic acid in methanol. […] The Mass Spectrometer system consisted of a Waters ZQ2000 single quadrupole mass spectrometer (Waters, Milford, Mass., USA) equipped with an Electrospray Ionization Source (ES). The mass detector was operated in positive ion mode (ES+) and Selected Ion Recording mode (SIR). Compounds were detected at m/z equal to their respective molecular weight plus 1.

[7] = molecular target: T1, human placental alkaline phosphatase (Homo sapiens, UniProt P05187); assay: Conversion of phosphate pro-drug by human placental alkaline phosphatase in vitro; assay type: in vitro ADME; conditions: 15 μM, 0.02 U/100 μL enzyme, pH 7.4, 30-120 minutes; FIG. 4
T1 construct: purchased Sigma-Aldrich Canada Ltd
Experimental: (§4) The conversion into biologically active drug of phosphate pro-drugs by calf intestinal alkaline phosphatase and human placental alkaline phosphatase was measured in vitro using purified enzymes. Purified calf intestinal alkaline phosphatase (Roche Diagnostic Inc. Laval, Quebec, Canada) or human placental alkaline phosphatase (Sigma-Aldrich Canada Ltd. Oakville, Ontario, Canada) was added at a concentration of 0.02 U/100 μL to a solution containing 15 μM of Compound 66, 20 mM Tris-HCl, pH 7.4 and 0.9% NaCl. The solutions were incubated for 30, 60 or 120 minutes. A solution containing 15 μM of Compound 66, 20 mM Tris-HCl, pH 7.4 and 0.9% NaCl was used as a reference (time=0 minutes). To each solution, an equal volume (100 μL) of ice-cold acetonitrile was added, and then the mixture was vortexed and transferred to glass vials. A standard concentration curve of the pro-drug and the drug was prepared in 10 mM Tris-HCl, pH 7.4, 0.45% NaCl and 50% acetonitrile. All samples were immediately analyzed by LC/MS.

[8] = system: calf intestinal alkaline phosphatase; assay: Conversion of phosphate pro-drug by calf intestinal alkaline phosphatase in vitro; assay type: in vitro ADME; conditions: 15 μM, 0.02 U/100 μL enzyme, pH 7.4, 30-120 minutes; FIG. 5
Experimental: as §4

T1 sequence (P05187 23-506): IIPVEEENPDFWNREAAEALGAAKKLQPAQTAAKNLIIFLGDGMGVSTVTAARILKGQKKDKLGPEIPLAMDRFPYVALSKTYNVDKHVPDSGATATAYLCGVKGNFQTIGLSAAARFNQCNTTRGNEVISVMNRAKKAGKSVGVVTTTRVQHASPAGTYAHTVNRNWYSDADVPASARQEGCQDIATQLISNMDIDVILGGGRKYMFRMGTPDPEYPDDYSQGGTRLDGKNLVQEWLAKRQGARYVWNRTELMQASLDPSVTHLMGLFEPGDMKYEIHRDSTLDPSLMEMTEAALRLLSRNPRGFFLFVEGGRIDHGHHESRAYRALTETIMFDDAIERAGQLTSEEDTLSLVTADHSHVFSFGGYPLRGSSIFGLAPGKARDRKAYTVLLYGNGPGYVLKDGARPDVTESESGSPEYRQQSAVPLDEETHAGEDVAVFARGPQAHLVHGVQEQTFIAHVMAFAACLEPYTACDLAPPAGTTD

In the case of `COC1=CC(c2cc3ccccc3[nH]2)=N/C1=C\c1[nH]c(C)cc1C` [Compound 1 Mesylate Salt], the “precipitation of the formulation” value [1] is reported as “shows no evidence of precipitation 72 hours after its preparation” and the “growth of prostatic tumors” value [2] is reported as “significantly reduce the growth of prostatic tumors in mice”.
For `COC1=CC(c2cc3ccccc3[nH]2)=N/C1=C\c1[nH]c(C)cc1C` [Compound 1 tartrate], the “effect on ATP levels in cancer cells versus normal cells” value [3] was “significantly more effective at lowering ATP levels in the cancer cell lines H1299 and C33A compared with the ATP levels in normal cell lines HMEC and MRC-5”, the “reduction in tumor growth compared to vehicle” value ([4]; 4.5 mg/kg IV once a day for five days, FIG. 3) was “statistically significant (p<0.0001) reduction in tumor growth” and the “average tumor size compared to vehicle” value ([4]; days 36 and 39, 4.5 mg/kg) was “significantly (p<0.001) smaller tumors on average”. For the same compound, the “change in body weight” value [5] was “no significant changes in body weight”, the “change in body weight” value ([5]; listed as Compound 1 Tartrate) was “non-significant weight loss” and the solubility ([6]; water (stated for Compound 66), filtrate of 0.2 μM filter by LC/MS, listed as Compound 1 Tartrate salt) was 0.1 mg/mL. For the same compound, the “precipitation of the formulation” value ([1]; listed as Compound 1 Tartrate Salt) was “tends to precipitate one hour after its preparation”.
With `COC1=CC(c2cc3ccccc3[nH]2)=N/C1=C\c1[nH]c(C)cc1C` [Compound 1] the “solubility in water (in words)” value ([6]; water) was “poorly soluble in water”.
For `COC1=CC(c2cc3ccccc3n2C(=O)CC(C)(C)c2c(C)cccc2OP(=O)(O)O)=N/C1=C/c1[nH]c(C)cc1C` [Compound 66], the “conversion of pro-drug into Compound 1” value [7] was “convert a fraction of the pro-drug Compound 66 present in solution into the drug Compound 1 within two hours”, the “conversion of pro-drug into Compound 1” value [8] was “convert a fraction of the pro-drug Compound 66 present in solution into the drug Compound 1 within two hours” and the “growth of prostatic tumors” value [2] was “significantly reduce the growth of prostatic tumors in mice”.
In the case of `N.N.[Cl][Pt][Cl]` [cisplatin], the “deaths in the group” value ([5]; days 29 and 32, 4 mg/kg IP, group of ten mice) is reported as “Two mice died”, the “body weight lost by the mouse that died” value ([5]; mouse that died on day 29, 4 mg/kg IP) is reported as 2.2 g and the “body weight lost by the mouse that died” value ([5]; mouse that died on day 32, 4 mg/kg IP) is reported as 7 g.
